Reference: article PMC9235892 (Virulence, 2022)
Where “and” joins values, the source holds several entries; their conditions need not be identical. Equal entries are not always repeated. Where two headings read alike, the source gives them in different places.

Tests used:
SARS-CoV-2 [1] = type: cell-based
HEK293T = assay: MTT assay in HEK293T; type: cell-based, human; details: 10 µM and 32 µM
SARS-CoV-2 [2] = assay: microbe, parasite or virus in culture; type: cell-based; details: for EC50: Severe acute respiratory syndrome coronavirus 2, 60 h, read-out: half maximal effective concentration (EC50), 50% CPE inhibition
Calu-3 = assay: MTT assay in Calu-3; type: cell-based, human; details: Calu-3, 10 µM and 32 µM
Caco-2 = assay: MTT assay in Caco-2; type: cell-based, human; details: Caco-2, 10 µM and 32 µM
SARS-CoV-2 [3] = type: cell-based; remark: listed apart in the source
SARS-CoV-2 B.1 = type: cell-based
SARS-CoV-2 [4] = type: cell-based; remark: listed apart in the source
SARS-CoV-2 [5] = type: cell-based; remark: listed apart in the source
SARS-CoV-2 [6] = system: SARS-CoV-2
HuH7.5 = assay: MTT assay in HuH7.5; type: cell-based, human; details: HuH7.5, 10 µM and 32 µM
SARS-CoV-2 [7] = type: cell-based; remark: listed apart in the source
SARS-CoV-2 [8] = type: cell-based; remark: listed apart in the source
[9] = system: intracellular cholesterol traffic; type: cell-based, African green monkeys
[10] = Potential toxicity of LNB167 in mice; type: in vivo, FVB male mice; details: oral gavage
Method: Adult FVB male mice bred and maintained at the Animal Facility of LOM at LNBio/CNPEM were weighed and divided into three groups (n = 5): vehicle (5% ethanol, 45% PEG400, 5% TWEEN®80, 45% saline), LNB167 60 mg/kg, and LNB167 300 mg/kg. Mice received one dose daily for 6 days by oral gavage. Animals were weighed and monitored daily for signs of potential compound toxicity including loss of movement, ruffled fur, ear position, eye shape, and death.

SARS-CoV-2 [11] = details: in vivo
HEK293T cells = type: cell-based, human
Pharmacokinetics in mice = type: in vivo, CD1 mice
Method: In vivo pharmacokinetics assessment of LNB167 was performed at the Center of Innovation and Preclinical Studies (CIEnP, Brazil) under contract. LNB167 was tested in adult male CD1 mice (n = 5) bred under Specific Pathogen Free conditions at doses of 60 mg/kg (p.o.) or 6 mg/kg (I.V.). Results were reported according to ARRIVE (Animal Research Reporting In Vivo Experiments) [[22–24]]. The pharmacokinetics parameters were determined using the software Phoenix® WinNonlin® (version 7.0).

## CN1CCN(C[C@@H](O)CO[C@H]2CC[C@@]3(C)C(CCC4C3CC[C@]3(C)C(=O)CCC43)C2)CC1 (some centres unmarked) [LNB169]
Vero CCL81 cells; 10 µM and 32 µM, Vero CCL81
  toxicity, MTT assay: not cytotoxic
SARS-CoV-2 [1]
  effect on viral load assessed by plaque assay: potent inhibition of SARS-CoV-2 replication
  fold reduction in infectious virus (plaque assay) vs vehicle-treated control: 1000 fold
HEK293T
  toxicity, MTT assay: not toxic
SARS-CoV-2 [2]
  EC50: 3.8 µM
Calu-3
  toxicity, MTT assay: not toxic
Caco-2
  toxicity, MTT assay: not toxic
SARS-CoV-2 [3]
  fold reduction in viral RNA levels (RT-qPCR) vs vehicle-treated control: ~100 fold
SARS-CoV-2 B.1
  fold reduction in infectious viral progeny (plaque assay), time of addition: up to 100 fold
  fold reduction in viral load (RT-qPCR), time of addition: approximately 10 fold
  time of addition after infection giving maximum antiviral activity: ≤ 8 h
SARS-CoV-2 [4]
  effect on SARS-CoV-2 viral load: no effect
SARS-CoV-2 [5]
  fold reduction in viral load (RT-qPCR, viral RNA): approximately 100 fold
SARS-CoV-2 [6]
  virucidal activity against SARS-CoV-2: neither LNB167 nor LNB169 were virucidal
HuH7.5
  toxicity, MTT assay: not toxic
SARS-CoV-2 [7]
  effect on SARS-CoV-2 viral load: no effect
SARS-CoV-2 [8]
  effect on levels of viral RNA (RT-qPCR): did not reduce levels of viral RNA

## C[C@]12CC[C@H](O)C[C@@H]1CC[C@@H]1[C@@H]2CC[C@]2(C)C(=O)CC[C@@H]12 [Epiandrosterone, reference compound]
SARS-CoV-2 [2]
  cytoprotective activity against SARS-CoV-2: did not display cytoprotective activity

## C[C@]12CC[C@H](OC(=O)CN3CCOCC3)CC1CCC1C2CC[C@]2(C)C(=O)CCC12 (some centres unmarked) [LNB149]
SARS-CoV-2 [2]
  half maximal effective concentration (EC50), 50% CPE inhibition: mid micromolar range

## CCN(CC)CCCC(C)Nc1ccnc2cc(Cl)ccc12 (centres unmarked) [Chloroquine, reference compound]
SARS-CoV-2 [2]
  EC50: 5.9 µM

## C[C@]12CC[C@H](OCCS(=O)(=O)N3CCOCC3)CC1CCC1C2CC[C@]2(C)C(=O)CCC12 (some centres unmarked) [FFNBio41]
Vero CCL81 cells
  toxicity, MTT assay: not cytotoxic
SARS-CoV-2 [1]
  effect on viral load assessed by plaque assay: no effect
SARS-CoV-2 [2]
  EC50: 5 µM

## CN1CCN(CC(=O)O[C@H]2CC[C@@]3(C)C(CCC4C3CC[C@]3(C)C(=O)CCC43)C2)CC1 (some centres unmarked) [FFNBio42]
Vero CCL81 cells
  toxicity, MTT assay: not cytotoxic
SARS-CoV-2 [1]
  fold reduction in infectious virus (plaque assay) vs vehicle-treated control: 10 fold
SARS-CoV-2 [2]
  EC50: 4.7 µM
SARS-CoV-2 [3]
  fold reduction in viral RNA levels (RT-qPCR) vs vehicle-treated control: 10 fold

## CCN(CC)CCO[C@H]1CC[C@@]2(C)C(=CC[C@@H]3[C@@H]2CC[C@]2(C)C(=O)CC[C@@H]32)C1.Cl [U18666A, reference compound]
[9]
  cholesterol distribution, filipin III staining: formation of puncta inside cells

## CN1CCN(C[C@H](O)CO[C@H]2CC[C@@]3(C)C(CCC4C3CC[C@]3(C)C(=O)CCC43)C2)CC1 (some centres unmarked) [LNB167]
[10]; 60 mg/Kg once a day for 6 days
  signs of toxicity: No signs of toxicity
[10]; 300 mg/Kg once a day for 6 days
  signs of toxicity: moderate weight loss and ruffled fur
Vero CCL81 cells; 10 µM and 32 µM, Vero CCL81
  toxicity, MTT assay: not cytotoxic
SARS-CoV-2 [1]
  effect on viral load assessed by plaque assay: potent inhibition of SARS-CoV-2 replication
  fold reduction in infectious virus (plaque assay) vs vehicle-treated control: 1000 fold
HEK293T
  toxicity, MTT assay: not toxic
SARS-CoV-2 [2]
  EC50: 0.9 µM
Calu-3
  toxicity, MTT assay: not toxic
[9]
  cholesterol distribution, filipin III staining: formation of puncta that were identical to those observed in U18666A-treated cells
Caco-2
  toxicity, MTT assay: not toxic
SARS-CoV-2 [3]
  fold reduction in viral RNA levels (RT-qPCR) vs vehicle-treated control: ~100 fold
SARS-CoV-2 [11]
  viral load recovered from infected mouse lungs (plaque assay or RT-qPCR): did not reduce the viral load
SARS-CoV-2 [11]; mouse
  histological analysis of lung sections: alterations in tissue architecture that were more pronounced in the context of SARS-CoV-2 infection
  protection from disease development induced by SARS-CoV-2: did not protect from disease development
SARS-CoV-2 [11]; mouse, 120 mg/kg
  average weight loss: 15%
SARS-CoV-2 B.1
  fold reduction in infectious viral progeny (plaque assay), time of addition: up to 100 fold
  fold reduction in viral load (RT-qPCR), time of addition: approximately 10 fold
  time of addition after infection giving maximum antiviral activity: ≤ 8 h
SARS-CoV-2 [4]
  effect on SARS-CoV-2 viral load: no effect
SARS-CoV-2 [5]
  fold reduction in viral load (RT-qPCR, viral RNA): ≤ 1000 fold
SARS-CoV-2 [6]
  virucidal activity against SARS-CoV-2: neither LNB167 nor LNB169 were virucidal
HuH7.5
  toxicity, MTT assay: not toxic
SARS-CoV-2 [7]
  effect on SARS-CoV-2 viral load: no effect
SARS-CoV-2 [8]
  effect on levels of viral RNA (RT-qPCR): did not reduce levels of viral RNA
HEK293T cells
  up-regulated pathways (RNASeq), SARS-CoV-2-infected cells: upregulation of multiple pathways involving metabolism and biosynthesis of both membrane lipids and cholesterol
  up-regulated pathways (RNASeq), non-infected cells: upregulation of membrane lipids and cholesterol metabolic and biosynthetic pathways
Pharmacokinetics in mice; male, CD1, mouse, plasma, oral, 60 mg/kg p.o. (6 mg/kg I.V.)
  bioavailability: 66.3%
Pharmacokinetics in mice; male, CD1, mouse, plasma, po, single dose of 60 mg/kg given orally
  half-life: 2.67 h
Pharmacokinetics in mice; single dose of 60 mg/kg given orally
  volume of distribution: 63.17 L/kg
Pharmacokinetics in mice; single dose of 60 mg/kg given orally, 60 mg/kg
  maximum plasma concentration: 498.69 ng/ml and 1.1 µM

## CN1CCN(CCC(=O)O[C@H]2CC[C@@]3(C)C(CCC4C3CC[C@]3(C)C(=O)CCC43)C2)CC1 (some centres unmarked) [LNB171]
Vero CCL81 cells
  toxicity, MTT assay: not cytotoxic
SARS-CoV-2 [1]
  effect on viral load assessed by plaque assay: no effect
SARS-CoV-2 [2]
  half maximal effective concentration (EC50), 50% CPE inhibition: mid micromolar range
SARS-CoV-2 [3]
  effect on viral load assessed by RT-qPCR: no effect

## C[C@]12CC[C@H](O)CC1CCC1C2CC[C@]2(C)C(=O)[C@H](Br)CC12 (some centres unmarked) [16a-bromoepiandrosterone, reference compound]
SARS-CoV-2 [2]
  cytoprotective activity against SARS-CoV-2: did not display cytoprotective activity

## C[C@]12CC[C@H](OC[C@@H](O)CN3CCOCC3)CC1CCC1C2CC[C@]2(C)C(=O)CCC12 (some centres unmarked) [LNB166]
SARS-CoV-2 [2]
  half maximal effective concentration (EC50), 50% CPE inhibition: mid micromolar range

## C[C@]12CC[C@H](OC[C@H](O)CN3CCOCC3)CC1CCC1C2CC[C@]2(C)C(=O)CCC12 (some centres unmarked) [LNB168]
SARS-CoV-2 [2]
  half maximal effective concentration (EC50), 50% CPE inhibition: mid micromolar range
